The source made the active and inactive calls.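 How the source made its calls: active means chemicals rated mutagenic or weakly mutagenic in the Salmonella bacterial test by one literature review, or positive overall by another; inconclusive means no clear call, values can overlap the other calls; inactive means the rest.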

We go through 45 compounds from PubChem BioAssay AID1194 (EPA DSSTox, 2008).

The data set deals with Salmonella typhimurium Ames mutagenicity, literature compiled. The data set is described as follows: DSSTox (CPDBAS) Carcinogenic Potency Database Salmonella Mutagenicity. In a few lines:
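Calls derive from published evaluations rather than new testing; overall "positive" in EPA Gene-Tox, or "mutagenic"/"weakly mutagenic" per Zeiger, counts as active.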

Regarding `ClC1=C(Cl)[C@]2(Cl)[C@@H]3[C@H]4C=CC(C4)[C@@H]3C1(Cl)C2(Cl)Cl`, the outcome was “inactive; active”. In the case of `[Cl-].[Cl-].[Cl-].[Fe+3]` it was “inactive”; in that of `Clc1ccccc1Cl`, “inactive”; in that of `CCOC(=O)N(CC)N=O`, “active; inactive”. As for `CN(C)CCOC(C)(c1ccccc1)c1ccccn1` (stereo not given), the outcome was inactive.

Consider `C=CF`, for which the outcome was “active; inactive”. The result for `CCN(N=O)C(N)=O` reads “active; inactive”; that for `O=C/C=C/O`, “inactive”; that for `CN(C)c1ccccc1`, “inactive”. Take `CCN(Cc1cccc(S(=O)(=O)[O-])c1)c1ccc(C(=C2C=CC(=[N+](C)C)C=C2)c2ccc(N(CC)Cc3cccc(S(=O)(=O)O)c3)cc2)cc1`: the outcome was active. The result for `Cc1cc2c(nc1N)[nH]c1ccccc12` reads “active; inactive”; that for `Nc1ccccc1C(=O)O`, “inactive”.

With `C=C(Cl)CSC(=S)N(CC)CC`, the outcome was “active; inactive”. The result for `C[C@H]1C(=O)O[C@@H]2CCN3CC=C(COC(=O)[C@](C)(O)[C@]1(C)O)[C@H]23` reads “inactive; active”; that for `CC(=O)Nc1ccc2c(c1)Cc1ccccc1-2`, “active”. In the case of `CCCCC(CC)COC(=O)c1ccccc1C(=O)OCC(CC)CCCC` (stereo not given), the outcome is “inactive; active”.

Regarding `CCCCCCCCCCCCCCCC(=O)OC/C=C(C)/C=C/C=C(C)/C=C/C1=C(C)CCCC1(C)C`, the outcome is “inactive; active”. The result for `CN(C)C(=S)[S][Pb][S]C(=S)N(C)C` reads “active”. In the case of `CC(=O)Oc1ccccc1C(=O)O` it was “inactive”; in that of `Nc1ccc(Cc2ccc(N)cc2)cc1`, “active”; in that of `O[C@H]([C@H](O)[C@@H](O)CBr)[C@H](O)CBr`, “active; inactive”.

`Cc1ccc(N)c(C)c1`: the outcome was active.

With `ClC1(Cl)C2(Cl)C3(Cl)C4(Cl)C(Cl)(Cl)C5(Cl)C3(Cl)C1(Cl)C5(Cl)C24Cl` (stereo not given), the outcome was inactive.

In the case of `O=[O+][O-]`, the outcome is “active; inactive”. In the case of `CC(C)O` it was “inactive; active”.

In the case of `COC(=O)C(c1ccccc1)C1CCCCN1` (stereo not given), the outcome was inactive. The result for `CCOP(=S)(OCC)SC1OCCOC1SP(=S)(OCC)OCC` (stereo not given) reads “active; inactive”. The result for `Cc1ncc([N+](=O)[O-])n1C` reads “active”. The result for `CC1CN(/N=C/c2ccc([N+](=O)[O-])o2)C(=O)N1` (stereo not given) reads “active; inactive”; that for `O=C/C=C/c1ccccc1`, “inactive”; that for `O=[N+]([O-])c1ccc2c(c1)Cc1ccccc1-2`, “active”. With `CN(C)N`, the outcome was active. Take `O=c1cc(CO)occ1O`: the outcome is “active; inactive”. In the case of `CCOc1ccccc1C(N)=O` it was “inactive; active”; in that of `Cc1ccc(S(=O)(=O)Oc2ccc(N=Nc3ccc(-c4ccc(N=Nc5c(O)ccc6cc(S(=O)(=O)O)cc(S(=O)(=O)O)c56)c(C)c4)cc3C)cc2)cc1`, “active”. Consider `CCC(Br)(CC)C(=O)NC(N)=O`, for which the outcome was inactive. In the case of `C=CC(=O)O` it was “inactive”.

Regarding `CC(Cl)Cl`, the outcome is “inactive; active”. In the case of `Nc1ncc([N+](=O)[O-])s1` it was “active”; in that of `CC(O)CNCC(C)O` (stereo not given), “inactive”. In the case of `C[C@@H]1Cc2c(Cl)cc(C(=O)N[C@@H](Cc3ccccc3)C(=O)O)c(O)c2C(=O)O1` it was “inactive”; in that of `O=C(O)Cc1c[nH]c2ccccc12`, “inactive”.

For `CC1CN(N=O)CC(C)N1C(=O)c1ccccc1` (stereo not given), the outcome was inactive. In the case of `CC(=O)Nc1ccc2c(c1)Cc1cc(NC(C)=O)ccc1-2` it was “active”; in that of `NC(=O)c1cnccn1`, “inactive; active”.
